“And” between values parts separate entries of the source, which are not always exact repeats. Equal entries are not always repeated.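 Cultured in 96-well plates, cells were exposed to test compound for 48 hours across five concentrations. Here, GI50 denotes the concentration required for 50% inhibition of growth.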 The source made the active and inactive calls. Rule as the data show it: active = GI50 up to about 1.1 µM and inactive = higher.
Legend:
Assay in all cases: NCI-60 cell line screen, 48 h
RPMI-8226 = tested on: RPMI-8226
M14 = tested on: M14
IGROV-1 = tested on: IGROV-1
HL-60 = tested on: HL-60
NCI-H23 = tested on: NCI-H23
HOP-92 = tested on: HOP-92
LOX IMVI = tested on: LOX IMVI
NCI-H522 = tested on: NCI-H522
UO-31 = tested on: UO-31
SF-268 = tested on: SF-268
CCRF-CEM = tested on: CCRF-CEM
NCI-H226 = tested on: NCI-H226
SF-295 = tested on: SF-295
HOP-62 = tested on: HOP-62
A498 = tested on: A498
SK-MEL-28 = tested on: SK-MEL-28
SNB-19 = tested on: SNB-19
HCC 2998 = tested on: HCC 2998

Measured: GI50

COc1ccc(C(C2=C(C)C(=O)c3ccccc3C2=O)c2ccc(C(C)C)cc(=O)c2O)cc1 (configuration not stated)
inactive: RPMI-8226 3.74 µM | M14 2.53 µM | IGROV-1 4.16 µM | HL-60 2.61 µM | NCI-H23 3.51 µM | HOP-92 3.57 µM | LOX IMVI 3.55 µM | NCI-H522 13.8 µM | UO-31 2.12 µM | SF-268 3.77 µM | CCRF-CEM 3.73 µM | NCI-H226 1.7 µM | SF-295 4.7 µM | HOP-62 2.59 µM

O=C(COc1ccc(/C=C/C(=O)c2ccc(Cl)cc2)cc1)Nc1c(Cl)cccc1Cl
active: HL-60 0.0607 µM
inactive: RPMI-8226 30.2 µM | A498 > 100 µM | M14 > 100 µM | IGROV-1 > 100 µM | NCI-H23 77.8 µM | HOP-92 19.1 µM | LOX IMVI 56.1 µM | NCI-H522 33.1 µM | SK-MEL-28 > 100 µM | UO-31 > 100 µM | SNB-19 > 100 µM | SF-268 > 100 µM | CCRF-CEM 20.8 µM | NCI-H226 > 100 µM | SF-295 68.7 µM | HOP-62 > 100 µM

OC(c1ccccc1)(c1ccccc1)c1ccccn1
inactive: RPMI-8226 95.5 µM | A498 > 100 µM | HCC 2998 > 100 µM | M14 > 100 µM | IGROV-1 > 100 µM | HL-60 71.3 µM | NCI-H23 83 µM | HOP-92 > 100 µM | LOX IMVI > 100 µM | NCI-H522 > 100 µM | SK-MEL-28 > 100 µM | UO-31 > 100 µM | SNB-19 > 100 µM | SF-268 > 100 µM | CCRF-CEM > 100 µM | NCI-H226 > 100 µM | SF-295 > 100 µM and 80.5 µM | HOP-62 > 100 µM

O=C1OC(O)c2cc3c(cc21)OCO3 (configuration not stated)
inactive: RPMI-8226 > 100 µM | A498 > 100 µM | HCC 2998 > 100 µM | M14 > 100 µM | IGROV-1 > 100 µM | HL-60 > 100 µM | NCI-H23 > 100 µM | HOP-92 > 100 µM | LOX IMVI > 100 µM | NCI-H522 > 100 µM | SK-MEL-28 > 100 µM | UO-31 > 100 µM | SNB-19 > 100 µM | SF-268 > 100 µM | CCRF-CEM > 100 µM | SF-295 > 100 µM | HOP-62 > 100 µM

COc1cc(CC(=O)c2cc3c(cc2-c2ccccc2)OCO3)cc(OC)c1OC
inactive: A498 33.3 µM | HCC 2998 > 100 µM | M14 45.9 µM | IGROV-1 23.1 µM | HL-60 11.1 µM | NCI-H23 22.9 µM | NCI-H522 18.7 µM | SK-MEL-28 58.3 µM | UO-31 19.5 µM | SNB-19 72.3 µM | SF-268 75.7 µM | CCRF-CEM 13 µM | NCI-H226 14 µM | SF-295 34.5 µM | HOP-62 79.6 µM
active: HOP-92 < 0.01 µM | LOX IMVI 0.253 µM

Cc1nc(-n2nc(-c3ccccc3)cc2-c2ccccc2)sc1C(/C=C/c1ccc([N+](=O)[O-])cc1)=N/NC(N)=S
inactive: RPMI-8226 11.9 µM | A498 > 100 µM | HCC 2998 23.1 µM | M14 43 µM | IGROV-1 35.2 µM | HL-60 4.13 µM | NCI-H23 27.8 µM | HOP-92 25.1 µM | LOX IMVI > 10 µM | SK-MEL-28 91.8 µM | UO-31 7.41 µM | SNB-19 > 100 µM | SF-268 31.4 µM | CCRF-CEM 22.2 µM | NCI-H226 22.8 µM | SF-295 45.8 µM | HOP-62 14 µM

CC1=C(C)C(=O)c2c(cc3c4ccccc4ccn23)C1=O
inactive: RPMI-8226 > 100 µM | M14 > 100 µM | IGROV-1 > 100 µM | NCI-H23 > 100 µM | LOX IMVI > 100 µM | NCI-H522 > 100 µM | SK-MEL-28 > 100 µM | UO-31 > 100 µM | SNB-19 > 100 µM | CCRF-CEM > 10 µM | NCI-H226 > 100 µM | SF-295 > 100 µM | HOP-62 > 100 µM

CCCCCCCCCCCCCCCC(=O)OCC1OC(N2C(=O)/C(=N\NC(N)=S)c3ccc([N+](=O)[O-])cc32)C(OC(C)=O)C1OC(C)=O (configuration not stated)
inactive: RPMI-8226 > 100 µM | HCC 2998 > 100 µM | M14 62.2 µM | IGROV-1 > 100 µM | HL-60 > 100 µM | NCI-H23 > 100 µM | HOP-92 93.5 µM | LOX IMVI 99.3 µM | NCI-H522 36.6 µM | SK-MEL-28 > 100 µM | SNB-19 > 100 µM | SF-268 > 100 µM | CCRF-CEM > 100 µM | NCI-H226 > 100 µM | SF-295 > 100 µM | HOP-62 > 100 µM

C=C(CN(CC(=C)C(=O)c1ccccc1)C(C)(C)C)C(=O)c1ccccc1
inactive: RPMI-8226 4.38 µM | A498 18.3 µM | HCC 2998 19 µM | M14 10.5 µM | IGROV-1 20.5 µM | HL-60 2.53 µM | NCI-H23 16.4 µM | HOP-92 5.62 µM | LOX IMVI 16.4 µM | NCI-H522 2.86 µM | SK-MEL-28 16.5 µM | UO-31 11.7 µM | SNB-19 23.3 µM | SF-268 12.2 µM | CCRF-CEM 1.5 µM | NCI-H226 24 µM | SF-295 28.3 µM

Cc1cc2c(=O)cc(-c3ccc(O)cc3)oc2c(C(=O)O)c1C
inactive: RPMI-8226 > 100 µM | HCC 2998 > 100 µM | M14 > 100 µM | IGROV-1 > 100 µM | HL-60 > 100 µM | NCI-H23 > 100 µM | HOP-92 > 100 µM | LOX IMVI > 100 µM | NCI-H522 > 100 µM | SK-MEL-28 > 100 µM | UO-31 > 100 µM | SNB-19 > 100 µM | CCRF-CEM > 100 µM | NCI-H226 > 100 µM | SF-295 > 100 µM | HOP-62 > 100 µM

CCN(CC)c1ccc(Cl)c2c1C(O)(C(C)C)C2(C)C (configuration not stated)
inactive: RPMI-8226 13.2 µM | A498 21.3 µM | HCC 2998 14.8 µM | M14 16.4 µM | IGROV-1 14.7 µM | HL-60 15.6 µM | NCI-H23 15 µM | LOX IMVI 17.3 µM | NCI-H522 14.5 µM | SK-MEL-28 22.4 µM | UO-31 17.3 µM | SNB-19 15.2 µM | SF-268 28.2 µM | CCRF-CEM 18.5 µM | NCI-H226 16.5 µM | SF-295 18.9 µM | HOP-62 23.7 µM

Nc1nc2c3nc(Nc4ccccc4)sc3nc(=S)n2c2sc(Nc3ccccc3)nc12
inactive: A498 > 100 µM | HCC 2998 22.2 µM | M14 > 100 µM | IGROV-1 > 100 µM | HL-60 > 100 µM | NCI-H23 > 100 µM | HOP-92 4.66 µM | NCI-H522 8.34 µM | SK-MEL-28 > 100 µM | UO-31 > 100 µM | SNB-19 40.1 µM | SF-268 12.1 µM | NCI-H226 > 100 µM | SF-295 > 100 µM | HOP-62 > 100 µM

CCOC(=O)C/N=c1\nc(SC)sc2c(C(=O)OCC)nc(Sc3ccccc3)n12
inactive: RPMI-8226 8.41 µM | HCC 2998 40.1 µM | M14 > 100 µM | IGROV-1 83.2 µM | HL-60 > 100 µM | HOP-92 20.8 µM | LOX IMVI 6.76 µM | NCI-H522 7.18 µM | UO-31 17.8 µM | SF-268 > 100 µM | CCRF-CEM 8.13 µM | NCI-H226 26 µM | HOP-62 52.1 µM

COc1cc(OC)c2c(=O)c3cccc([N+](=O)[O-])c3n(C)c2c1
inactive: RPMI-8226 > 100 µM | M14 > 100 µM | IGROV-1 61.4 µM | HL-60 31.3 µM | NCI-H23 77.8 µM | LOX IMVI 80.4 µM | NCI-H522 52.4 µM | SK-MEL-28 > 100 µM | UO-31 > 100 µM | SNB-19 > 100 µM | SF-268 > 100 µM | CCRF-CEM 60 µM | SF-295 > 100 µM

Cc1ccc(-c2cc(-c3ccco3)nc(N)n2)o1
inactive: RPMI-8226 > 100 µM | M14 > 100 µM | IGROV-1 > 100 µM | HL-60 > 100 µM | NCI-H23 > 100 µM | LOX IMVI > 100 µM | NCI-H522 > 100 µM | SK-MEL-28 > 100 µM | UO-31 58.2 µM | SNB-19 > 100 µM | SF-268 > 100 µM | CCRF-CEM > 100 µM | NCI-H226 > 100 µM | SF-295 > 100 µM | HOP-62 > 100 µM

[O-][S+](Cc1ccccc1)c1nc2ccccc2nc1-c1cccs1 (configuration not stated)
inactive: RPMI-8226 17.9 µM | HCC 2998 12.4 µM | M14 11 µM | IGROV-1 14.6 µM | HL-60 3.49 µM | NCI-H23 13.8 µM | HOP-92 15.6 µM | NCI-H522 1.21 µM | SK-MEL-28 11.3 µM | UO-31 24.8 µM | SNB-19 18.2 µM | SF-268 17.8 µM | CCRF-CEM 4 µM | NCI-H226 4.06 µM | SF-295 24.7 µM | HOP-62 19.2 µM

CCCCC(C(=O)C(=O)Nc1ccccc1CC)C(=O)C(C)C (configuration not stated)
inactive: RPMI-8226 > 100 µM | A498 > 100 µM | HCC 2998 > 100 µM | M14 > 100 µM | IGROV-1 > 100 µM | HL-60 > 100 µM | NCI-H23 > 100 µM | HOP-92 > 100 µM | LOX IMVI > 100 µM | NCI-H522 > 100 µM | UO-31 > 100 µM | SNB-19 > 100 µM | SF-268 > 100 µM | CCRF-CEM > 100 µM | NCI-H226 > 100 µM | SF-295 > 100 µM

Reference: ChEMBL document CHEMBL1201862, “PubChem BioAssay data set” (2004)
